Data set [1] deals with P. berghei-luciferase sporozoites. Kind of data set: microbe, parasite or virus in culture. It is filed as cell-based, Plasmodium berghei. The conditions noted are these: liver-stage parasites, 48 hours in culture, read-out: Liver stage 48h EC50.
Data set [2] relates to P. falciparum Dd2-HLH. The experiment in a line: microbe, parasite or virus in culture. Format: cell-based, Plasmodium falciparum. The conditions noted are these: read-out: Blood stage 72h EC50.
For data set [3], the system named is HEK293T cells. Kind of data set: Mammalian cell cytotoxicity assay, HEK293T (CellTiter-Glo, 72 h). Particulars: read-out: HEK CC50.
The subject of data set [4] is HepG2 cells. The experiment in a line: Mammalian cell cytotoxicity assay, HepG2 (CellTiter-Glo, 72 h). Particulars: read-out: HEP CC50.
Data set [5] deals with P. falciparum Dd2-HLH. The experiment in a line: microbe, parasite or virus in culture. It is filed as cell-based, Plasmodium falciparum. Particulars: read-out: Blood stage 48h EC50.
Data set [6] deals with P. falciparum blood-stage. On the set-up: method as in PMID 28874661. The conditions noted are these: read-out: EC50 against P. falciparum blood-stage growth in vitro; cited from earlier work.
The next data set relates to PfPKG. The conditions noted are these: read-out: IC50 in PfPKG kinase assays; cited from earlier work.
The test system of data set [7] is P. falciparum (NF54 drug-sensitive strain). On the set-up: method as in PMID 28446690. Particulars: read-out: EC50 against intraerythrocytic lifecycle stages of P. falciparum; cited from earlier work.
Data set [8] in a line: in vitro. The conditions noted are these: human.
Data set [9] in a line: in vitro. The conditions noted are these: human. The source holds these as a separate data set.
The test system of data set [10] is HepG2 cells.
Data set [11] relates to HEK293T cells.
Setting [12] is: P. falciparum blood-stage parasites, 72 hours in culture.
[13] abbreviates: P. falciparum blood-stage parasites, 48 hours in culture.

Structures can show the parent of a compound that is named as a salt. Where two headings read alike, the source gives them in different places.

In the case of `CCCCCCCCN=c1ccn(CCCCCCCC)cc1` [Pirtenidine], the EC50 was 838 nM in [1] and 615 nM in the data set with P. falciparum Dd2-HLH [2] (setting [12]). Further, the CC50 in the data set on HEK293T cells [3] (HEK293T cells) stood at 279 nM; in the data set with HepG2 cells [4] (HepG2 cells), 1080 nM.
Regarding `Oc1ccc(CCN2CCC(Nc3nc4ccccc4n3Cc3ccc(F)cc3)CC2)cc1` [Desmethylastemizole], the EC50 in the data set with P. falciparum Dd2-HLH [5] (setting [13]) was 23 nM; in data set [1], 70 nM; with P. falciparum Dd2-HLH [2] (setting [12]) it was 47 nM. The results for the CC50 with HEK293T cells [3] (HEK293T cytotoxicity) and in the data set on HepG2 cells [4] (HepG2 cytotoxicity) were 5920 nM and 58 nM, respectively.
As to `Cc1cc(-c2cc(O)ccc2Cl)cc2nnc(Nc3ccc(OCCN4CCCC4)cc3)nc12` [TG 100572 (Hydrochloride)], the EC50 was 122 nM with P. falciparum Dd2-HLH [5] (setting [13]), 642 nM in data set [1] and 589 nM in the data set on P. falciparum Dd2-HLH [2] (setting [12]). The CC50 in the data set on HEK293T cells [3] (HEK293T cells) was 1730 nM; with HepG2 cells [4] (HepG2 cells), 3440 nM.
For `O=C(CC1c2ccccc2C(=O)N1c1ccc2ccc(Cl)nc2n1)N1CCC2(CC1)OCCO2` (stereo not shown) [Pazinaclone], in that order: 77 nM, more than 10000 nM, 427 nM, more than 9950 nM and more than 9950 nM.
`Cc1cn2c(-c3ccnc(NCC4CC4)n3)c(-c3ccc(F)c(NS(C)(=O)=O)c3)nc2cc1CN(C)C` [ML10]: the EC50 in data set [6] was 2.1 nM. Besides, the IC50 in the data set on PfPKG is 0.16 nM.
As to `CCC(CC)Nc1cc(C)nc(Oc2c(C)cc(C)cc2C)c1C` [CP-376395], the results for the EC50 (with P. falciparum Dd2-HLH [5] (setting [13]); in [1]; in the data set on P. falciparum Dd2-HLH [2] (setting [12])) were 835 nM, 6260 nM and 884 nM, respectively. Moreover, the figures for the CC50 in the data set with HEK293T cells [3] (HEK293T cells) and in the data set on HepG2 cells [4] (HepG2 cells) were more than 9950 nM and 2500 nM, respectively.
Consider `CS(=O)(=O)c1ccc(-c2cnc(N)c(-c3ccc(C(F)(F)F)nc3)c2)cc1` [MMV390048], for which the EC50 in data set [7] is 28 nM.
Take `CCN(CCO)CCCOc1ccc2c(Nc3cc(CC(=O)Nc4cccc(F)c4)n[nH]3)ncnc2c1` [Barasertib-HQPA]: the EC50 came out at 253 nM in the data set with P. falciparum Dd2-HLH [5] (Plasmodium falciparum, DD2, 48 h); 4620 nM in [1] (Plasmodium berghei, HepG2); 539 nM in the data set with P. falciparum Dd2-HLH [2] (Plasmodium falciparum, DD2, 72 h). For the same molecule, the results for the CC50 in the data set “in vitro [8]” and in the data set “in vitro [9]” were more than 9950 nM and more than 9990 nM, respectively.
In the case of `CN(C)CCNc1nc2cc(O)ccc2c2c1C(=O)c1ccccc1-2` [TAS-103], the EC50 in the data set on P. falciparum Dd2-HLH [5] (setting [13]) amounted to 574 nM; in data set [1], 1500 nM; with P. falciparum Dd2-HLH [2] (setting [12]), 756 nM. Also, the CC50 with HEK293T cells [3] (HEK293T cytotoxicity) amounted to 334 nM; with HepG2 cells [4] (HepG2 cytotoxicity), 766 nM.
With `CCN(CC)CC(O)CNc1c2ccc(Cl)cc2nc2ccc(OC)cc12` (stereo not shown) [Acranil], the EC50 with P. falciparum Dd2-HLH [5] (setting [13]) was determined as 8 nM; in data set [1], 312 nM; in the data set on P. falciparum Dd2-HLH [2] (setting [12]) it was 20 nM. For the same molecule, the CC50 turned out to be 1430 nM in the data set on HEK293T cells [3] (HEK293T cells) and 1110 nM with HepG2 cells [4] (HepG2 cells).
Turning to `CN(C)CCOc1ccc2[nH]c(C(=O)NCC#Cc3ccc(C(=O)NO)cc3)cc2c1` [CRA-026440], the CC50 came out at 107 nM in the data set on HepG2 cells [10] and 836 nM with HEK293T cells [11]. In addition, the half-maximal effective concentration (EC50) in the data set on P. falciparum Dd2-HLH [5] (setting [13]) was 15 nM; in [1], 2490 nM; in the data set on P. falciparum Dd2-HLH [2] (setting [12]) it was 63 nM.
For the molecule `C=C/C=C/C[C@@H](C)[C@@H](O)[C@H]1C(=O)N[C@@H](CC)C(=O)N(C)CC(=O)N(C)[C@@H](CC(C)C)C(=O)N[C@@H](C(C)C)C(=O)N(C)[C@@H](CC(C)C)C(=O)N[C@@H](C)C(=O)N[C@H](C)C(=O)N(C)[C@@H](CC(C)C)C(=O)N(C)[C@@H](CC(C)C)C(=O)N(C)[C@@H](C(C)C)C(=O)N1C` [Voclosporin], the EC50 in the data set on P. falciparum Dd2-HLH [2] (setting [12]) came to 254 nM. Moreover, the CC50 in the data set on HEK293T cells [3] (HEK293T cytotoxicity) and with HepG2 cells [4] (HepG2 cytotoxicity) was more than 9950 nM each time.
Turning to `CCCC1(CCC)CCC2(CCN(CCCN(CC)CC)C2)CC1` [Atiprimod dimaleate], the EC50 in the data set with P. falciparum Dd2-HLH [5] (setting [13]) turned out to be 43 nM; in [1] it was 7330 nM; with P. falciparum Dd2-HLH [2] (setting [12]), 430 nM. Besides, the CC50 is 1720 nM in the data set with HEK293T cells [3] (HEK293T cells) and 2990 nM with HepG2 cells [4] (HepG2 cells).

The values are drawn from PMC11145868, “Protein target similarity is positive predictor of in vitro antipathogenic activity: a drug repurposing strategy for Plasmodium falciparum” (Journal of Cheminformatics, 2024).
